Measurements published in patent publication US9561233B2, “Use of ibogaine for the treatment of pain” (DemeRX, Inc., priority 2014, dated 2017).

How the values were obtained:
pain in patients = assay: human clinical studies of ibogaine dosing, alleviation of pain; assay type: in vivo; conditions: lower dosing of ibogaine (lower end of prior-art range 0.01 to 1000 mg/kg body weight)
Method: While ibogaine has been disclosed for treatment of substance addiction, its use in humans is complicated by the fact that the ranges in the prior art are exceptionally broad (0.01 to 1000 mg/kg body weight).

QT interval = QT interval of patients treated with ibogaine; assay type: in vivo, human; conditions: higher dosing unacceptable
From the text: A prolonged QT interval is a marker of potential Torsades de Pointes, a serious arrhythmia that can result in death.
As used herein, the term “QT interval” refers to the measure of the time between the start of the Q wave and the end of the T wave in the electrical cycle of the heart. Prolongation of the QT interval refers to an increase in the QT interval.

`CCC1CC2CC3c4[nH]c5ccc(OC)cc5c4CCN(C2)C13` (centres unmarked) [ibogaine] was tested, and the “impact on the alleviation of pain in patients” value (pain in patients) was “minimal impact” and the “prolongation of the treated patient's QT interval” value (QT interval) was “dose dependent prolongation”.
